Reference: patent US9469615B2, “Quinoxalines and AZA-quinoxalines as CRTH2 receptor modulators” (Merck Sharp & Dohme Corp., priority 2010, dated 2016)
pKi: −log10 of the molar value.

target: T1, hCRTH2 (Homo sapiens, UniProt Q9Y5Y4); experiment: Radioligand binding assay ([3H]PGD2 competition, HEK-hCRTH2 membranes); conditions: [3H]PGD2 binding, values in text
T1 construct: expressed in transfected cells; host or cells: HEK (human embryonic kidney) cells expressing hCRTH2; membrane preparation
T1 sequence (Q9Y5Y4 1-395): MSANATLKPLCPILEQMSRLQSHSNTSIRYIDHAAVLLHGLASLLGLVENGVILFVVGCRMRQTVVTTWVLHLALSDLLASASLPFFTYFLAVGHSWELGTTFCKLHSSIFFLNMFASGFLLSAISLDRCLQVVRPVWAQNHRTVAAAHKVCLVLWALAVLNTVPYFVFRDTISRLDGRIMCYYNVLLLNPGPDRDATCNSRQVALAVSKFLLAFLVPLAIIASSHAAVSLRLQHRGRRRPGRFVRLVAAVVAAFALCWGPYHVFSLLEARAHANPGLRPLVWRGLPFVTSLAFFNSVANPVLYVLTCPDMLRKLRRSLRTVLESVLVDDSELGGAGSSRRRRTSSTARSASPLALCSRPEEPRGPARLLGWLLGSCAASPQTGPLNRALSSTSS
Outline: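 Filter-bound radioactivity was counted by scintillation after 60 min incubations at room temperature. Membranes (8-20 μg) from HEK cells expressing hCRTH2 competed test ligands against 3.0 nM [3H]PGD2 in Tris-HCl pH 7.4 buffer with EDTA and 2 mM MnCl2; 10 μM PGD2 set non-specific binding.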

SMILES	pKi
C[C@H](NC(=O)c1ccc2nc(-c3ccccc3)c(CCCCC(=O)O)nc2c1)c1cncc2ccccc12 [compound 637, (S)-5-(7-((1-(isoquinolin-4-yl)ethyl)carbamoyl)-3-phenylquinoxalin-2-yl)pentanoic acid]	8.38

same assay, conditions: [3H]PGD2 competition, Table B

SMILES	pKi
N#Cc1ccc(N2CCN(C(=O)c3ccc4nc(-c5ccc(Cl)cc5)c(CCCCC(=O)O)nc4c3)CC2)cc1 [compound 623, 5-(3-(4-chlorophenyl)-7-(4-(4-cyanophenyl)piperazine-1-carbonyl)quinoxalin-2-yl)pentanoic acid]	7.70 to 8.68
O=C(O)CCCCc1nc2cc(C(=O)N3CCN(c4ccc(Cl)c(Cl)c4)CC3)ccc2nc1-c1ccc(Cl)cc1 [compound 624, 5-(3-(4-chlorophenyl)-7-(4-(3,4-dichlorophenyl)piperazine-1-carbonyl)quinoxalin-2-yl)pentanoic acid]	8.70 to 10.00
CN(Cc1cccnc1)C(=O)c1ccc2nc(-c3ccc(Cl)cc3)c(CCCCC(=O)O)nc2c1 [compound 625, 5-(3-(4-chlorophenyl)-7-(methyl(pyridin-3-ylmethyl)carbamoyl)quinoxalin-2-yl)pentanoic acid]	7.70 to 8.68
O=C(O)CCCCc1nc2cc(C(=O)N3CCC(n4c(=O)[nH]c5ccccc54)CC3)ccc2nc1-c1ccc(Cl)cc1 [compound 626, 5-(3-(4-chlorophenyl)-7-(4-(2-oxo-2,3-dihydro-1H-benzo[d]imidazol-1-yl)piperidine-1-carbonyl)quinoxalin-2-yl)pentanoic acid]	7.70 to 8.68
Cc1cccc(N2CCN(C(=O)c3ccc4nc(-c5ccc(Cl)cc5)c(CCCCC(=O)O)nc4c3)CC2)c1C [compound 627, 5-(3-(4-chlorophenyl)-7-(4-(2,3-dimethylphenyl)piperazine-1-carbonyl)quinoxalin-2-yl)pentanoic acid]	8.70 to 10.00
Cc1cccc(C)c1N1CCN(C(=O)c2ccc3nc(-c4ccc(Cl)cc4)c(CCCCC(=O)O)nc3c2)CC1 [compound 628, 5-(3-(4-chlorophenyl)-7-(4-(2,6-dimethylphenyl)piperazine-1-carbonyl)quinoxalin-2-yl)pentanoic acid]	8.70 to 10.00
Cc1ccc(C)c(N2CCN(C(=O)c3ccc4nc(-c5ccc(Cl)cc5)c(CCCCC(=O)O)nc4c3)CC2)c1 [compound 629, 5-(3-(4-chlorophenyl)-7-(4-(2,5-dimethylphenyl)piperazine-l-carbonyl)quinoxalin-2-yl)pentanoic acid]	8.70 to 10.00
O=C(O)CCCCc1nc2cc(C(=O)N3C[C@@H]4C[C@H]3CN4Cc3ccccc3)ccc2nc1-c1ccc(Cl)cc1 [compound 630]	7.70 to 8.68
N#Cc1ccccc1N1CCN(C(=O)c2ccc3nc(-c4ccc(Cl)cc4)c(CCCCC(=O)O)nc3c2)CC1 [compound 631, 5-(3-(4-chlorophenyl)-7-(4-(2-cyanophenyl)piperazine-1-carbonyl)quinoxalin-2-yl)pentanoic acid]	8.70 to 10.00
COc1ccccc1C1CCN(C(=O)c2ccc3nc(-c4ccc(Cl)cc4)c(CCCCC(=O)O)nc3c2)CC1 [compound 632, 5-(3-(4-chlorophenyl)-7-(4-(2-methoxyphenyl)piperidine-1-carbonyl)quinoxalin-2-yl)pentanoic acid]	8.70 to 10.00
O=C(O)CCCCc1nc2cc(C(=O)N3CCC4(CC3)OCc3ccccc34)ccc2nc1-c1ccc(Cl)cc1 [compound 633, 5-(3-(4-chlorophenyl)-7-(3H-spiro[isobenzofuran-1,4′-piperidin]-1′-ylcarbonyl)quinoxalin-2-yl)pentanoic acid]	8.70 to 10.00
O=C(O)CCCCc1nc2cc(C(=O)N3CCC4(CC3)CCN(c3ccccc3)C4=O)ccc2nc1-c1ccc(Cl)cc1 [compound 634, 5-(3-(4-chlorophenyl)-7-(1-oxo-2-phenyl-2,8-diazaspiro[4.5]decane-8-carbonyl)quinoxalin-2-yl)pentanoic acid]	7.70 to 8.68
O=C(O)CCCCc1nc2cc(C(=O)N3CCN(c4cccc(Cl)c4Cl)CC3)ccc2nc1-c1ccc(Cl)cc1 [compound 635, 5-(3-(4-chlorophenyl)-7-(4-(2,3-dichlorophenyl)piperazine-1-carbonyl)quinoxalin-2-yl)pentanoic acid]	8.70 to 10.00
Cc1ccc(N2CCN(C(=O)c3ccc4nc(-c5ccc(Cl)cc5)c(CCCCC(=O)O)nc4c3)CC2)c(C)c1 [compound 636, 5-(3-(4-chlorophenyl)-7-(4-(2,4-dimethylphenyl)piperazine-1-carbonyl)quinoxa1in-2-yl)pentanoic acid]	8.70 to 10.00
C[C@H](NC(=O)c1ccc2nc(-c3ccccc3)c(CCCCC(=O)O)nc2c1)c1cncc2ccccc12 [compound 637, (S)-5-(7-((1-(isoquinolin-4-yl)ethyl)carbamoyl)-3-phenylquinoxalin-2-yl)pentanoic acid]	7.70 to 8.68
C[C@@H](NC(=O)c1ccc2nc(-c3ccccc3)c(CCCCC(=O)O)nc2c1)c1cncc2ccccc12 [compound 638, (R)-5-(7-((1-(isoquinolin-4-yl)ethyl)carbamoyl)-3-phenylquinoxalin-2-yl)pentanoic acid]	6.15 to 6.70
C[C@@H](NC(=O)c1ccc2nc(-c3ccccc3)c(CCCCC(=O)O)nc2c1)c1cccc2ncccc12 [compound 639, (R)-5-(3-phenyl-7-((1-(quinolin-5-yl)ethyl)carbamoyl)quinoxalin-2-yl)pentanoic acid]	6.70 to 7.70
C[C@H](NC(=O)c1ccc2nc(-c3ccccc3)c(CCCCC(=O)O)nc2c1)c1cccc2ncccc12 [compound 640, (S)-5-(3-phenyl-7-((1-(quinolin-5-yl)ethyl)carbamoyl)quinoxalin-2-yl)pentanoic acid]	7.70 to 8.68
O=C(O)CCCCc1nc2cc(C(=O)N[C@@H]3CCOc4ccc(F)cc43)ccc2nc1-c1ccccc1 [compound 641, (R)-5-(7-((6-fluoro-chroman-4-yl)carbamoyl)-3-phenylquinoxalin-2-yl)pentanoic acid]	7.70 to 8.68
O=C(O)CCCCc1nc2cc(C(=O)N[C@@H]3CCOc4cc(F)c(F)cc43)ccc2nc1-c1ccccc1 [compound 642, (R)-5-(7-((6,7-difluorochroman-4-yl)carbamoyl)-3-phenylquinoxalin-2-yl)pentanoic acid]	7.70 to 8.68
O=C(O)CCCCc1nc2cc(C(=O)N[C@@H]3CCOc4cc(F)ccc43)ccc2nc1-c1ccccc1 [compound 643, (R)-5-(7-((7-fluoro-chroman-4-yl)carbamoyl)-3-phenylquinoxalin-2-yl)pentanoic acid]	8.70 to 10.00
C[C@@H](c1ccccc1)N(C)C(=O)c1ccc2nc(-c3ccc(Cl)cc3)c(CCCCC(=O)O)nc2c1 [compound 644, (S)-5-(3-(4-chloro-phenyl)-7-(methyl(1-phenylethyl)carbamoyl)quinoxalin-2-yl) pentanoic acid]	7.70 to 8.68
O=C(O)CCCCc1nc2cc(C(=O)N3CCCCC3c3ccccc3)ccc2nc1-c1ccc(Cl)cc1 (stereo not drawn) [compound 645, 5-(3-(4-chlorophenyl)-7-(2-phenylpiperidine-1-carbonyl)quinoxalin-2-yl)pentanoic acid]	7.70 to 8.68
O=C(O)CCCCc1nc2cc(C(=O)N3CCCC3c3ccccc3)ccc2nc1-c1ccc(Cl)cc1 (stereo not drawn) [compound 646, 5-(3-(4-chlorophenyl)-7-(2-phenylpyrrolidine-1-carbonyl)quinoxalin-2-yl)pentanoic acid]	7.70 to 8.68
O=C(O)CCCCc1nc2cc(C(=O)N3CCCCC3c3ccccn3)ccc2nc1-c1ccc(Cl)cc1 (stereo not drawn) [compound 647, 5-(3-(4-chlorophenyl)-7-(2-(pyridin-2-yl)piperidine-1-carbonyl)quinoxalin-2-yl)pentanoic acid]	6.70 to 7.70
O=C(O)CCCCc1nc2cc(C(=O)N3CCC3c3ccccc3)ccc2nc1-c1ccc(Cl)cc1 (stereo not drawn) [compound 648, 5-(3-(4-chlorophenyl)-7-(2-phenylazetidine-1-carbonyl)quinoxalin-2-yl)pentanoic acid]	7.70 to 8.68
